Assay results: ChEMBL document CHEMBL5537113, “Discovery of 1,2-diaryl-3-oxopyrazolidin-4-carboxamides as a new class of MurA enzyme inhibitors and characterization of their antibacterial activity” (Eur J Med Chem, 2023)
pIC50: −log10 of the molar value. Active and inactive are the calls of the source. The rule behind the calls is not given here.

Tests used:
[1] = tested on: Staphylococcus aureus; test: Antibacterial activity against Staphylococcus aureus Newman D2C NCTC 10833 assessed as reduction in microbial growth incubated for 16 hrs by serial dilution method; assay type: functional
[2] = target: UDP-N-acetylglucosamine 1-carboxyvinyltransferase (Escherichia coli K-12) (UniProt P0A749); test: Inhibition of Escherichia coli K12 His-tagged MurA expressed in Escherichia coli BL21 cells at 50 uM using UNAG as substrate pre incubated for 15 mins followed by substrate addition and measured after 15 mins by microplate reader analysis relative to control; details: time 30.0 min
Chain of UDP-N-acetylglucosamine 1-carboxyvinyltransferase (Escherichia coli K-12) (P0A749 whole entry): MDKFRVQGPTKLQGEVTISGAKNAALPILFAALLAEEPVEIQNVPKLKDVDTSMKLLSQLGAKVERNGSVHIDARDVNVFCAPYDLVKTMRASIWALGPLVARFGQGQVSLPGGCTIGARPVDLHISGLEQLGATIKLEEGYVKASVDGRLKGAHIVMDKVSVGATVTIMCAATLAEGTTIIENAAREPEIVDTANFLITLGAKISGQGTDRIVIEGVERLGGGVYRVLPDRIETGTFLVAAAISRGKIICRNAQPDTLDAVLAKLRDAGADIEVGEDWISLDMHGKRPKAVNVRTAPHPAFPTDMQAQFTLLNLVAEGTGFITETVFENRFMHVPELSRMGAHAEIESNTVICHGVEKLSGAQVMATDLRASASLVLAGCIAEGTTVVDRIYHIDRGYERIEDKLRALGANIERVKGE

[3] = tested on: Escherichia coli; test: Antibacterial activity against Escherichia coli harboring tolC deletion mutant assessed as reduction in microbial growth incubated for 16 hrs by serial dilution method; assay type: functional
[4] = tested on: Bifidobacterium breve; test: Antibacterial activity against Bifidobacterium breve HM1120 assessed as reduction in microbial growth incubated for 48 hrs by broth microdilution method; assay type: functional
[5] = tested on: Clostridioides difficile; test: Antibacterial activity against Clostridioides difficile NR-49285 assessed as reduction in microbial growth incubated for 48 hrs by broth microdilution method; assay type: functional
[6] = tested on: Clostridioides difficile; test: Antibacterial activity against Clostridioides difficile HM-88 assessed as reduction in microbial growth incubated for 48 hrs by broth microdilution method; assay type: functional
[7] = tested on: Clostridioides difficile; test: Antibacterial activity against Clostridioides difficile NR-49277 assessed as reduction in microbial growth incubated for 48 hrs by broth microdilution method; assay type: functional
[8] = tested on: Lactobacillus crispatus; test: Antibacterial activity against Lactobacillus crispatus HM 103 assessed as reduction in microbial growth incubated for 48 hrs by broth microdilution method; assay type: functional
[9] = tested on: Clostridioides difficile; test: Antibacterial activity against Clostridioides difficile NR-13436 assessed as reduction in microbial growth incubated for 48 hrs by broth microdilution method; assay type: functional
[10] = tested on: Bacteroides fragilis; test: Antibacterial activity against Bacteroides fragilis HM 719 assessed as reduction in microbial growth incubated for 48 hrs by broth microdilution method; assay type: functional
[11] = tested on: Bifidobacterium longum; test: Antibacterial activity against Bifidobacterium longum HM 846 assessed as reduction in microbial growth incubated for 48 hrs by broth microdilution method; assay type: functional
[12] = tested on: Clostridioides difficile; test: Antibacterial activity against Clostridioides difficile NR-32889 assessed as reduction in microbial growth incubated for 48 hrs by broth microdilution method; assay type: functional
[13] = tested on: Bacteroides fragilis; test: Antibacterial activity against Bacteroides fragilis HM 718 assessed as reduction in microbial growth incubated for 48 hrs by broth microdilution method; assay type: functional
[14] = tested on: Clostridioides difficile; test: Antibacterial activity against Clostridioides difficile NR-49294 assessed as reduction in microbial growth incubated for 48 hrs by broth microdilution method; assay type: functional
[15] = tested on: Clostridioides difficile; test: Bactericidal activity against Clostridioides difficile NR-49284 assessed as reduction in microbial growth by broth microdilution method; assay type: functional
[16] = tested on: Bacteroides fragilis; test: Antibacterial activity against Bacteroides fragilis HM 709 assessed as reduction in microbial growth incubated for 48 hrs by broth microdilution method; assay type: functional
[17] = tested on: Clostridioides difficile; test: Antibacterial activity against Clostridioides difficile NR-49282 assessed as reduction in microbial growth incubated for 48 hrs by broth microdilution method; assay type: functional
[18] = tested on: Clostridioides difficile; test: Antibacterial activity against Clostridioides difficile NR-49283 assessed as reduction in microbial growth incubated for 48 hrs by broth microdilution method; assay type: functional
[19] = tested on: Clostridioides difficile; test: Bactericidal activity against Clostridioides difficile ATCC BAA1870 assessed as reduction in microbial growth by broth microdilution method; assay type: functional
[20] = tested on: Clostridioides difficile; test: Antibacterial activity against Clostridioides difficile NR-32903 assessed as reduction in microbial growth incubated for 48 hrs by broth microdilution method; assay type: functional
[21] = tested on: Bifidobacterium angulatum; test: Antibacterial activity against Bifidobacterium angulatum HM 1189 assessed as reduction in microbial growth incubated for 48 hrs by broth microdilution method; assay type: functional
[22] = tested on: Lactobacillus gasseri; test: Antibacterial activity against Lactobacillus gasseri HM 403 assessed as reduction in microbial growth incubated for 48 hrs by broth microdilution method; assay type: functional
[23] = tested on: Clostridioides difficile; test: Antibacterial activity against Clostridioides difficile NR-13427 assessed as reduction in microbial growth incubated for 48 hrs by broth microdilution method; assay type: functional
[24] = tested on: Clostridioides difficile; test: Bactericidal activity against Clostridioides difficile NR-32904 assessed as reduction in microbial growth by broth microdilution method; assay type: functional
[25] = tested on: Clostridioides difficile; test: Bactericidal activity against Clostridioides difficile ATCC 43255 assessed as reduction in microbial growth by broth microdilution method; assay type: functional
[26] = tested on: Clostridioides difficile; test: Antibacterial activity against Clostridioides difficile NR-49287 assessed as reduction in microbial growth incubated for 48 hrs by broth microdilution method; assay type: functional
[27] = tested on: Clostridioides difficile; test: Antibacterial activity against Clostridioides difficile ATCC 43255 assessed as reduction in microbial growth incubated for 48 hrs by broth microdilution method; assay type: functional
[28] = tested on: Clostridioides difficile; test: Antibacterial activity against Clostridioides difficile NR-49286 assessed as reduction in microbial growth incubated for 48 hrs by broth microdilution method; assay type: functional
[29] = tested on: Clostridioides difficile; test: Antibacterial activity against Clostridioides difficile NR-49288 assessed as reduction in microbial growth incubated for 48 hrs by broth microdilution method; assay type: functional
[30] = tested on: Lactobacillus gasseri; test: Antibacterial activity against Lactobacillus gasseri HM 407 assessed as reduction in microbial growth incubated for 48 hrs by broth microdilution method; assay type: functional
[31] = tested on: Bacteroides fragilis; test: Antibacterial activity against Bacteroides fragilis HM 20 assessed as reduction in microbial growth incubated for 48 hrs by broth microdilution method; assay type: functional
[32] = tested on: Clostridioides difficile; test: Antibacterial activity against Clostridioides difficile NR-32895 assessed as reduction in microbial growth incubated for 48 hrs by broth microdilution method; assay type: functional
[33] = tested on: Clostridioides difficile; test: Bactericidal activity against Clostridioides difficile NR-49278 assessed as reduction in microbial growth by broth microdilution method; assay type: functional
[34] = tested on: Clostridioides difficile; test: Antibacterial activity against Clostridioides difficile NR-49278 assessed as reduction in microbial growth incubated for 48 hrs by broth microdilution method; assay type: functional
[35] = tested on: Clostridioides difficile; test: Antibacterial activity against Clostridioides difficile NR-32904 assessed as reduction in microbial growth incubated for 48 hrs by broth microdilution method; assay type: functional
[36] = tested on: Clostridioides difficile; test: Antibacterial activity against Clostridioides difficile NR-49291 assessed as reduction in microbial growth incubated for 48 hrs by broth microdilution method; assay type: functional
[37] = tested on: Clostridioides difficile; test: Antibacterial activity against Clostridioides difficile NR-49284 assessed as reduction in microbial growth incubated for 48 hrs by broth microdilution method; assay type: functional
[38] = tested on: Lactobacillus crispatus; test: Antibacterial activity against Lactobacillus crispatus HM 420 assessed as reduction in microbial growth incubated for 48 hrs by broth microdilution method; assay type: functional
[39] = tested on: Clostridioides difficile; test: Bactericidal activity against Clostridioides difficile NR-32895 assessed as reduction in microbial growth by broth microdilution method; assay type: functional
[40] = tested on: Bifidobacterium breve; test: Antibacterial activity against Bifidobacterium breve HM 412 assessed as reduction in microbial growth incubated for 48 hrs by broth microdilution method; assay type: functional
[41] = tested on: Clostridioides difficile; test: Antibacterial activity against Clostridioides difficile NR-49279 assessed as reduction in microbial growth incubated for 48 hrs by broth microdilution method; assay type: functional
[42] = target: UDP-N-acetylglucosamine 1-carboxyvinyltransferase (Escherichia coli K-12, UniProt P0A749); test: Inhibition of Escherichia coli K12 His-tagged MurA expressed in Escherichia coli BL21 cells using UNAG as substrate pre incubated for 15 mins followed by substrate addition and measured after 15 mins by microplate reader analysis
Chain of UDP-N-acetylglucosamine 1-carboxyvinyltransferase (P0A749 whole entry): as above

[43] = Drug uptake in Escherichia coli harboring tolC deletion mutant assessed per 1.6x10^9 cells at 10 uM incubated for 30 mins by LC analysis; assay type: ADME; details: 0.5 h
[44] = Drug uptake in Escherichia coli harboring tolC deletion mutant at 10 uM incubated for 30 mins by LC analysis; assay type: ADME; details: 0.5 h

CN1C(=O)C(C(=O)Nc2ncc(C#N)s2)CN1c1cccc(Cl)c1 (centres undefined)
MIC [1]: > 40 µM | inhibition [2]: inactive | MIC [3]: > 40 µM

CCc1c(Cl)c(O)c(Cl)c(O)c1C(=O)O[C@H]1[C@H](O)[C@H](OC)[C@H](OC/C2=C\C=C\C[C@H](O)/C(C)=C/[C@H](CC)[C@@H](O[C@@H]3OC(C)(C)[C@@H](OC(=O)C(C)C)[C@H](O)[C@@H]3O)/C(C)=C/C(C)=C/C[C@@H]([C@@H](C)O)OC2=O)O[C@@H]1C [FIDAXOMICIN]
MIC [4]: ≤ 0.06 µg/mL | MIC [5]: 0.06 µg/mL | MIC [6]: 0.015 µg/mL | MIC [7]: 0.06 µg/mL | MIC [8]: 0.5 µg/mL | MIC [9]: 0.06 µg/mL | MIC [10]: > 64 µg/mL | MIC [11]: ≤ 0.06 µg/mL | MIC [12]: 0.03 µg/mL | MIC [13]: > 64 µg/mL | MIC [14]: 0.06 µg/mL | MBC [15]: 0.06 µg/mL | MIC [16]: > 64 µg/mL | MIC [17]: 0.06 µg/mL | MIC [18]: 0.06 µg/mL | MBC [19]: 0.25 µg/mL | MIC [20]: 0.06 µg/mL | MIC [21]: ≤ 0.06 µg/mL | MIC [22]: 1 µg/mL | MIC [23]: 0.06 µg/mL | MBC [24]: 0.06 µg/mL | MBC [25]: 0.06 µg/mL | MIC [26]: 0.125 µg/mL | MIC [27]: 0.03 µg/mL | MIC [28]: 0.125 µg/mL | MIC [29]: 0.03 µg/mL | MIC [30]: 1 µg/mL | MIC [31]: > 64 µg/mL | MIC [32]: 0.03 µg/mL | MBC [33]: 0.125 µg/mL | MIC [34]: 0.06 µg/mL | MIC [35]: 0.06 µg/mL | MIC [36]: 0.125 µg/mL | MIC [37]: 0.06 µg/mL | MIC [38]: 2 µg/mL | MBC [39]: 0.06 µg/mL | MIC [40]: ≤ 0.06 µg/mL | MIC [41]: 0.125 µg/mL

O=C(Nc1nc(C(F)(F)F)cs1)C1CN(c2cccc(Cl)c2)N(c2cccc(Cl)c2)C1=O (centres undefined)
pIC50 [42]: 4.41 | MIC [1]: 40 µM | inhibition [2]: 59.2% | MIC [3]: > 40 µM

O=C(Nc1ccccn1)C1CN(c2cccc(Cl)c2)N(c2cccc(Cl)c2)C1=O (centres undefined)
MIC [1]: > 40 µM | inhibition [2]: 30.5% | MIC [3]: > 40 µM

O=C(NCc1ccccn1)C1CN(c2cccc(Cl)c2)N(c2cccc(Cl)c2)C1=O (centres undefined)
MIC [1]: > 40 µM | inhibition [2]: inactive | MIC [3]: > 40 µM

Cc1csc(NC(=O)C2CN(c3cccc(Cl)c3)N(c3cccc(Cl)c3)C2=O)n1 (centres undefined)
pIC50 [42]: 4.41 | MIC [1]: > 40 µM | inhibition [2]: 60.2% | MIC [3]: 40 µM

O=C(Nc1cccnc1)C1CN(c2cccc(Cl)c2)N(c2cccc(Cl)c2)C1=O (centres undefined)
MIC [1]: > 40 µM | inhibition [2]: 8.7% | MIC [3]: 38 µM

O=C(Nc1nc2ccccc2s1)C1CN(c2cccc(Cl)c2)N(c2cccc(Cl)c2)C1=O (centres undefined)
Drug uptake [43]: 19 µM | pIC50 [42]: 4.74 | MIC [1]: > 40 µM | inhibition [2]: 65.2% | MIC [3]: > 40 µM | Drug uptake [44]: 573 nM

O=C(Nc1ccc2[nH]cnc2c1)C1CN(c2cccc(Cl)c2)N(c2cccc(Cl)c2)C1=O (centres undefined)
pIC50 [42]: 4.47 | MIC [1]: > 40 µM | inhibition [2]: 74.2% | MIC [3]: 18 µM

CN1C(=O)C(C(=O)NC2CCSC2=O)CN1c1cccc(Cl)c1 (centres undefined)
MIC [1]: > 40 µM | inhibition [2]: inactive | MIC [3]: > 40 µM

Cc1cnc(NC(=O)C2CN(c3cccc(Cl)c3)N(c3cccc(Cl)c3)C2=O)s1 (centres undefined)
pIC50 [42]: 4.66 | MIC [1]: > 40 µM | inhibition [2]: 59.6% | MIC [3]: 40 µM

O=C(Nc1nccs1)C1CN(c2cccc(Cl)c2)N(c2cccc(Cl)c2)C1=O (centres undefined)
MIC [1]: > 40 µM | inhibition [2]: 17.8% | MIC [3]: > 40 µM

N#Cc1ccc(NC(=O)C2CN(c3cccc(Cl)c3)N(c3cccc(Cl)c3)C2=O)cn1 (centres undefined)
MIC [1]: > 40 µM | inhibition [2]: 32.2% | MIC [3]: > 40 µM

O=C1SCCC1NC(=O)C1CN(c2ccccc2)N(c2ccccc2)C1=O (centres undefined)
MIC [1]: > 40 µM | inhibition [2]: inactive | MIC [3]: > 40 µM
